Measured values taken from US20250186411A1, “Methods of Treating Disorders Associated with Overactivation of IKKB” (The United States Government as represented by the …, priority 2023, published 2025).

Tests used:
[1] = tested on: KLF15 promoter (pEZX-FR03hKLF15p human podocytes); experiment: KLF15 reporter high-throughput screening assay in human podocytes (firefly/renilla luciferase); assay type: cell-based
Method: Briefly, these podocytes proliferate under permissive conditions (gamma interferon at 33° C.), but differentiate under nonpermissive conditions (37° C.).
The amplified fragment contains MluI and PmeI RE sites and was subcloned into the MluI and PmeI cloning site of the pEZX-FR03 Firefly luciferase (FLuc) and Renilla luciferase (Rluc) reporter cloning vector (GeneCopoeia) to generate pEZX-FR03hKLF15p. Following verification of the sequence by restriction and μsequencing, the pEZX-FR03hKLF15p construct (which contains a puromycin resistance cassette) was transfected into human podocytes followed by selection in puromycin-containing media for 2 weeks. Surviving podocytes clones were pooled together for further analysis.
The library of compounds from the National Cancer Institute (Approved Oncology Drugs Set VI; Natural Products Set III; Diversity Set V; and Mechanistic Diversity Set II) were added to a final concentration of 1 μM in 0.5% DMSO in the low FBS cell culture media (0.2% FBS) using liquid handling system PipetMax (Gilson). After 24 hours incubation at 37° C., the Luc-Pair™ Duo-Luciferase HT Assay Kit (GeneCopoeia LF015) were used and firefly and renilla luciferase activity was determined using the SpectraMax M3 (Molecular Devices). Positive controls were all-trans retinoic acid (atRA) (1 μM) and dexamethasone (DEX) (1 μM). Negative controls were DMSO and cell-free media.
To identify small molecule inducers of KLF15 expression in human podocytes, human podocytes were generated with a dual reporter, firefly luciferase directed at the KLF15 promoter region and renilla luciferase (pEZX-FR03hKLF15p). […] The positive controls were inducers of KLF15 expression, dexamethasone (DEX) and all-trans retinoic acid (atRA), and […] and cell-free wells served as negative controls.

[2] = tested on: Tg26 mice; experiment: HIV-1 transgenic (Tg26) model; assay type: in vivo, mouse
Method: (§1) Urine albumin was quantified by ELISA using a kit from Bethyl Laboratory Inc. Urine creatinine levels were measured in the same samples using the Creatinine Colorimetric Assay Kit (500701; Cayman Chemical) as per manufacturer's protocol.
Briefly formalin-fixed and paraffin embedded sections were deparaffinized, and endogenous peroxidase was inactivated with H2O2. All kidney sections from these mice were prepared in identical fashion. Immunofluorescence was performed using rabbit anti-KLF15, mouse anti-WT1 (Santa Cruz, SC-7385), rabbit anti-Synaptopodin (Sigma, SAB3500585), rabbit anti-p65 (Cell Signaling Tech, 8242S) antibodies. After washing, sections were incubated with the appropriate fluorophore-linked secondary antibody (Alexa Fluor 647 Donkey anti-mouse, Alexa Fluor 568 Donkey anti-rabbit antibodies, Life Technologies). After counter staining with Hoechst (Thermo Fisher Scientific), slides were mounted in Prolong Gold mounting media (Thermo Fisher Scientific) and photographed under a Nikon Eclipse Ni-E Fully Motorized Microscope System with a DS-Qi2 digital camera.
Quantification of KLF15 staining in the podocytes was determined by quantifying the intensity of KLF15 staining (optical density) in WT1+Hoechst staining using ImageJ 1.53c software (National Institute of Health, http://imagej.nih.gov/ij).
Mice were perfused with PBS, and the kidneys were fixed in 10% phosphate buffered formalin overnight and switched to 70% ethanol before processing for histology. Kidney tissue was embedded in paraffin by Stony Brook Medicine Research Histology Core Laboratory (RHCL)—Department of Pathology and 4-μm-thick sections were stained with periodic acid-Schiff (PAS), hematoxylin & eosin (H&E), and masson's trichrome (Sigma-Aldrich). Quantification of % FSGS was determined by renal pathology in a blinded fashion (Huntsman Cancer Institute-University of Utah Health).

[3] = tested on: KLF15 promoter with mutation in the GRE (pEZX-FR03hKLF5p-mutant podocytes); experiment: GR-mutant KLF15 reporter assay; assay type: cell-based, human; conditions: as compared to DMSO
[4] = biological target: T1, IKKβ (Homo sapiens, UniProt O14920); experiment: Thermal shift assay; conditions: BT503 1 μM, human podocytes
T1 sequence (O14920 whole entry): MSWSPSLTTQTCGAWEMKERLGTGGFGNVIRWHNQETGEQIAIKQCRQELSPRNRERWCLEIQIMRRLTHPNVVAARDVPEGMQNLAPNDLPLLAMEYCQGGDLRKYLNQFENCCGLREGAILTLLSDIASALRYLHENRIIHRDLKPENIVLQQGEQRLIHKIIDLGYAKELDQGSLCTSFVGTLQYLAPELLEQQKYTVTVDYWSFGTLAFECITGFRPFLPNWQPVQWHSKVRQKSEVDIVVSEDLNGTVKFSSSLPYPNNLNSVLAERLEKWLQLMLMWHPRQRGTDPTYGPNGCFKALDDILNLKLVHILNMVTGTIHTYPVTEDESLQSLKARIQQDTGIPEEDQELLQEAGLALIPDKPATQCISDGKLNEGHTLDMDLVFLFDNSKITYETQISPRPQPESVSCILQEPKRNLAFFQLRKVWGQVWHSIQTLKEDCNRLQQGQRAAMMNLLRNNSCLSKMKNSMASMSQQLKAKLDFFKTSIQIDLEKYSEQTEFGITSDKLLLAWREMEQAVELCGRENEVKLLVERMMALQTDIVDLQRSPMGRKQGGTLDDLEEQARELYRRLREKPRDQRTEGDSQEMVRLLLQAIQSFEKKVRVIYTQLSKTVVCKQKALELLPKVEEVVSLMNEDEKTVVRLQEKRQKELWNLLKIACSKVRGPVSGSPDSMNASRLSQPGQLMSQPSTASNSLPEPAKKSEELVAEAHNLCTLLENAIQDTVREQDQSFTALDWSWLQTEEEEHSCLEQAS
Method: Each tube was treated at a range of temperatures (40° C. to 52° C.) for 3 minutes using Eppendorf Mastercycler gradient temperature setting. Protein was subsequently extracted from cells using freeze-thaw cycle, and IKKβ and β-actin were detected using western blot.

[5] = tested on: FVB/n mice; experiment: LPS-induced proteinuric murine model; assay type: in vivo, mouse
Method: In the LPS-induced proteinuric model, all 8-week-old FVB/n mice were initially treated with LPS [intraperitoneal (IP), 10 μg/g, Sigma-Aldrich] or sterile normal saline (IP) at 0- and 24-hour time points as previously described (17). […] Urine was collected and mice were euthanized 48 hours post-LPS treatment.
as §1
Briefly, mice were perfused with PBS containing 2.5 mg/ml iron oxide and 1% BSA. At the end of perfusion, kidneys were removed, decapsulated, minced into 1 mm^3 pieces, and digested in PBS containing 1 mg/ml collagenase A. Digested tissue was subsequently passed through a 100 μm cell strainer and collected by centrifugation. The pellet was resuspended in 1 ml PBS and glomeruli were collected using a magnet. The purity of glomeruli was verified under microscopy. Total RNA was isolated from kidney glomeruli of mice using the RNeasy Kit (Qiagen, Germantown, MD).
Total RNA from cells was extracted by using TRIzol (Life Technologies). First-strand cDNA was prepared from total RNA (up to 1.25 μg) using the SuperScript™ IV VILO™ Master Mix (Life Technologies), and cDNA was amplified in triplicate using PowerUp™ SYBR™ Green Master Mix on an ABI QuantStudio3 (Applied Biosystems). Primers for human and mouse genes were designed using NCBI Primer-BLAST and validated for efficiency before application (Table 1). Data were normalized to housekeeping genes (GAPDH or ACTB) and presented as a fold increase compared with RNA isolated from the control group using the ΔΔCT method.
Transmission Electron Microscopy (TEM) was done in the Central Microscopy Imaging Center at Stony Brook Medicine. Briefly, after embedding the kidney tissues in epoxy resin, ultrathin sections were stained with uranyl acetate and lead citrate, then mounted on a copper grid, and photographed under a FEI BioTwin G2 Transmission Electron Microscope with AMT XR-60 CCD digital Camera (FEI).

[6] = biological target: T1, IKKβ
Method: After the kinase reaction, an equal volume of ADP-Go™ Reagent is added to both terminate the kinase reaction and deplete the remaining ATP. Subsequently, the Detection Reagent is added to simultaneously convert ADP to ATP and measure the concentrations of newly synthesized ATP using a luciferase/luciferin reaction. The light generated is measured using a 96-well plate reader SpectraMax M3 (Molecular Devices). Luminescence can be correlated to ADP concentrations by using an ATP-to-ADP conversion curve.

## CSc1ccc(NC(=O)Nc2ccc(C)nc2)cc1 [BT503]
[1]
  KLF15 activity as compared to DEX-treated podocytes: higher KLF15 activity
[1]; 37 C vs 33 C
  KLF15 activity under nonpermissive versus permissive conditions: only induces KLF15 activity under nonpermissive (37 C) conditions
[2]
  p65 expression (kidney lysates): reduced
[2]; daily for 14 days, vs DMSO
  albuminuria: significantly mitigated the increase in albuminuria
[2]; vs DMSO
  % of glomeruli with focal segmental and global GS lesions: significantly reduced
  glomerular synaptopodin expression: restored
  interstitial fibrosis: reduced interstitial fibrosis
  kidney function (serum urea nitrogen and creatinine): improved kidney function
  podocyte number (WT1+ podocytes per glomerular cross-sectional area): preserved podocyte number
[3]
  KLF15-mutant reporter activity: induced KLF15 activity
[4]
  IKKβ stability (thermal shift): IKKβ stability was reduced in DMSO as compared to BT503 treatment
[5]; LPS conditions, vs DMSO-treated mice
  Glomerular Klf15 and Wilms Tumor 1 (Wt1) expression: restored
[5]; LPS proteinuric murine model, concurrent treatment, vs DMSO
  albuminuria: attenuated albuminuria
[5]; LPS treatment
  foot process effacement (podocyte injury): significantly restored
[6]; ATP 50 μM
  inhibition of kinase activity at higher ATP concentrations: mitigated
[6]; read-out: IC50 (IKKβ kinase activity), IKBKB^WT
  IC50: 0.163 µM
